According to PubChem BioAssay AID1963854 (Molecular Pharmacology Branch, DTP, NCI, 2024):

System: 186277-243-T-J2-PDC complex spheroid viability
Assay: Anticancer human tumor 186277-243-T-J2-PDC patient-derived colon adenocarcinoma cell line growth inhibition [POLQ]
Details: for IC50: curve of first compound; for viability, T/C: stronger effect = lower value; active means viability on the fitted dose curve at most 10% of control; inactive means the rest
In short: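 Three-cell-type spheroids modelling solid tumor plus stroma served as the readout system; POL inhibitors were tested individually and in combination, concentration ranges set by clinical Cmax where known.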

[1] = second compound 0.0316 µM, first compound 0.0316 µM
[2] = second compound 0.0316 µM, first compound 0.1 µM
[3] = second compound 0.0316 µM, first compound 0.316 µM
[4] = second compound 0.0316 µM, first compound 1 µM
[5] = second compound 0.0316 µM, first compound 3.16 µM
[6] = second compound 0.0316 µM, first compound 10 µM
[7] = second compound 0.1 µM, first compound 0.0316 µM
[8] = second compound 0.1 µM, first compound 0.1 µM
[9] = second compound 0.1 µM, first compound 0.316 µM
[10] = second compound 0.1 µM, first compound 1 µM
[11] = second compound 0.1 µM, first compound 3.16 µM
[12] = second compound 0.1 µM, first compound 10 µM
[13] = second compound 0.316 µM, first compound 0.0316 µM
[14] = second compound 0.316 µM, first compound 0.1 µM
[15] = second compound 0.316 µM, first compound 0.316 µM
[16] = second compound 0.316 µM, first compound 1 µM
[17] = second compound 0.316 µM, first compound 3.16 µM
[18] = second compound 0.316 µM, first compound 10 µM
[19] = second compound 1 µM, first compound 0.0316 µM
[20] = second compound 1 µM, first compound 0.1 µM
[21] = second compound 1 µM, first compound 0.316 µM
[22] = second compound 1 µM, first compound 1 µM
[23] = second compound 1 µM, first compound 3.16 µM
[24] = second compound 1 µM, first compound 10 µM
[25] = second compound 3.16 µM, first compound 0.0316 µM
[26] = second compound 3.16 µM, first compound 0.1 µM
[27] = second compound 3.16 µM, first compound 0.316 µM
[28] = second compound 3.16 µM, first compound 1 µM
[29] = second compound 3.16 µM, first compound 3.16 µM
[30] = second compound 3.16 µM, first compound 10 µM
[31] = second compound 10 µM, first compound 0.0316 µM
[32] = second compound 10 µM, first compound 0.1 µM
[33] = second compound 10 µM, first compound 0.316 µM
[34] = second compound 10 µM, first compound 1 µM
[35] = second compound 10 µM, first compound 3.16 µM
[36] = second compound 10 µM, first compound 10 µM
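Further: spheroids exposed to compounds for seven days.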
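Wherever viability, T/C is given: 100% = DMSO vehicle control viability.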

CCc1cc2c(N3CCc4c(cc(Cn5ccnc5)cc4-c4cn(C)nc4C(F)(F)F)C3=O)ccnc2c(OC)n1 + Cc1cccc(N(C)C(=O)C2C(O)CCN2c2nc(C)cc(C(F)(F)F)c2C#N)c1
> 10000 nM: IC50 (second compound 0.0316 µM) | IC50 (second compound 0.1 µM) | IC50 (second compound 0.316 µM) | IC50 (second compound 1 µM) | IC50 (second compound 3.16 µM) | IC50 (second compound 10 µM)
inactive: viability, T/C [1] 96.1% | viability, T/C [2] 82.8% | viability, T/C [3] 96.2% | viability, T/C [4] 96.2% | viability, T/C [5] 106% | viability, T/C [6] 100% | viability, T/C [7] 90.7% | viability, T/C [8] 98.5% | viability, T/C [9] 107% | viability, T/C [10] 88.6% | viability, T/C [11] 112% | viability, T/C [12] 103% | viability, T/C [13] 96.7% | viability, T/C [14] 95.2% | viability, T/C [15] 97.2% | viability, T/C [16] 106% | viability, T/C [17] 109% | viability, T/C [18] 107% | viability, T/C [19] 102% | viability, T/C [20] 127% | viability, T/C [21] 107% | viability, T/C [22] 100% | viability, T/C [23] 93.6% | viability, T/C [24] 102% | viability, T/C [25] 93.8% | viability, T/C [26] 97.3% | viability, T/C [27] 100% | viability, T/C [28] 118% | viability, T/C [29] 119% | viability, T/C [30] 106% | viability, T/C [31] 114% | viability, T/C [32] 94.7% | viability, T/C [33] 111% | viability, T/C [34] 96.8% | viability, T/C [35] 108% | viability, T/C [36] 109%

Nc1ccn(C2OC(CO)C(O)C2(F)F)c(=O)n1 (stereo not drawn) + COC1C(OC(N)=O)C(O)C(Oc2ccc3c(O)c(NC(=O)c4ccc(O)c(CC=C(C)C)c4)c(=O)oc3c2C)OC1(C)C
active: viability, T/C [1] 7.44% | viability, T/C [2] 5.74% | viability, T/C [3] 6.22% | viability, T/C [4] 6.52% | viability, T/C [5] 5.93% | viability, T/C [6] 5.3% | viability, T/C [7] 7.07% | viability, T/C [8] 5.49% | viability, T/C [9] 6.25% | viability, T/C [10] 6.16% | viability, T/C [11] 7.16% | viability, T/C [12] 5.7% | viability, T/C [13] 6.61% | viability, T/C [14] 5.95% | viability, T/C [15] 6.28% | viability, T/C [16] 6.18% | viability, T/C [17] 6.62% | viability, T/C [18] 5.63% | viability, T/C [19] 6.65% | viability, T/C [20] 5.29% | viability, T/C [21] 5.98% | viability, T/C [22] 6.8% | viability, T/C [23] 6.08% | viability, T/C [24] 5.74% | viability, T/C [25] 5.98% | viability, T/C [26] 5.52% | viability, T/C [27] 5.91% | viability, T/C [28] 5.81% | viability, T/C [29] 7.8% | viability, T/C [30] 5.79% | viability, T/C [31] 6.27% | viability, T/C [32] 5.86% | viability, T/C [33] 6.51% | viability, T/C [34] 6.65% | viability, T/C [35] 7.8% | viability, T/C [36] 5.54%
< 31.6 nM: IC50 (second compound 0.0316 µM) | IC50 (second compound 0.1 µM) | IC50 (second compound 0.316 µM) | IC50 (second compound 1 µM) | IC50 (second compound 3.16 µM) | IC50 (second compound 10 µM)

O=C(Nc1ccc(O)c(NS(=O)(=O)c2ccc(F)cc2)c1)c1ccc(-c2ccccc2)cc1 + Cc1cccc(N(C)C(=O)C2C(O)CCN2c2nc(C)cc(C(F)(F)F)c2C#N)c1
> 10000 nM: IC50 (second compound 0.0316 µM) | IC50 (second compound 0.1 µM) | IC50 (second compound 0.316 µM) | IC50 (second compound 1 µM) | IC50 (second compound 3.16 µM) | IC50 (second compound 10 µM)
inactive: viability, T/C [1] 93.9% | viability, T/C [2] 98.5% | viability, T/C [3] 108% | viability, T/C [4] 86.1% | viability, T/C [5] 116% | viability, T/C [6] 107% | viability, T/C [7] 108% | viability, T/C [8] 102% | viability, T/C [9] 104% | viability, T/C [10] 88.9% | viability, T/C [11] 108% | viability, T/C [12] 105% | viability, T/C [13] 86.6% | viability, T/C [14] 106% | viability, T/C [15] 110% | viability, T/C [16] 103% | viability, T/C [17] 102% | viability, T/C [18] 108% | viability, T/C [19] 95% | viability, T/C [20] 111% | viability, T/C [21] 103% | viability, T/C [22] 104% | viability, T/C [23] 107% | viability, T/C [24] 109% | viability, T/C [25] 102% | viability, T/C [26] 94.8% | viability, T/C [27] 102% | viability, T/C [28] 90.8% | viability, T/C [29] 103% | viability, T/C [30] 112% | viability, T/C [31] 100% | viability, T/C [32] 106% | viability, T/C [33] 86.7% | viability, T/C [34] 95.2% | viability, T/C [35] 107% | viability, T/C [36] 115%

C=CCn1c(=O)c2cnc(Nc3ccc(N4CCN(C)CC4)cc3)nc2n1-c1cccc(C(C)(C)O)n1 + Nc1ccc(C#CCN(C(=O)Cc2ncc(C(F)(F)F)cc2C(F)(F)F)c2ccc(F)cc2)nn1
212 nM: IC50 (second compound 0.0316 µM)
211 nM: IC50 (second compound 3.16 µM)
229 nM: IC50 (second compound 0.316 µM)
204 nM: IC50 (second compound 10 µM)
214 nM: IC50 (second compound 1 µM)
224 nM: IC50 (second compound 0.1 µM)
inactive: viability, T/C (second compound 0.0316 µM, first compound 0.00316 µM) 95% | viability, T/C (second compound 0.0316 µM, first compound 0.01 µM) 91.2% | viability, T/C [1] 86.9% | viability, T/C [2] 87.5% | viability, T/C [3] 30.1% | viability, T/C [4] 15.7% | viability, T/C (second compound 0.1 µM, first compound 0.00316 µM) 94.8% | viability, T/C (second compound 0.1 µM, first compound 0.01 µM) 107% | viability, T/C [7] 109% | viability, T/C [8] 99.5% | viability, T/C [9] 28.8% | viability, T/C [10] 15.1% | viability, T/C (second compound 0.316 µM, first compound 0.00316 µM) 88.5% | viability, T/C (second compound 0.316 µM, first compound 0.01 µM) 105% | viability, T/C [13] 93% | viability, T/C [14] 101% | viability, T/C [15] 31.8% | viability, T/C [16] 14.4% | viability, T/C (second compound 1 µM, first compound 0.00316 µM) 89.5% | viability, T/C (second compound 1 µM, first compound 0.01 µM) 101% | viability, T/C [19] 101% | viability, T/C [20] 93% | viability, T/C [21] 28% | viability, T/C [22] 12% | viability, T/C (second compound 3.16 µM, first compound 0.00316 µM) 109% | viability, T/C (second compound 3.16 µM, first compound 0.01 µM) 97.5% | viability, T/C [25] 110% | viability, T/C [26] 98.2% | viability, T/C [27] 23.7% | viability, T/C [28] 13.3% | viability, T/C (second compound 10 µM, first compound 0.00316 µM) 90.9% | viability, T/C (second compound 10 µM, first compound 0.01 µM) 98.1% | viability, T/C [31] 100% | viability, T/C [32] 96.5% | viability, T/C [33] 21.3% | viability, T/C [34] 11.2%
